# Test results as given in PMC4830886, “Extended evaluation on the ES-D3 cell differentiation assay combined with the BeWo transport model, to predict relative developmental toxicity of triazole compounds” (Archives of Toxicology, 2015).
# Marks after values point to notes of the source that are not given here.
# Experiments:
# ES-D3 cells = assay: ES-D3 cell differentiation assay (differentiation into contracting cardiomyocytes); type: cell-based, mouse; settings: for Corrected BMCd50: BMCd50 divided by relative Papp value (BeWo model); for IC50: Mus musculus, Cardiomyocyte, 240 h, concentration for 50 % reduction in number of differentiated EBs, BMD modelling, day 10, read-out: BMCd50
# Description: The murine ES-D3 cell line was purchased from ATCC (Wesel, Germany). The cells were maintained in polystyrene cell culture flasks (Corning, The Netherlands) in Dulbecco’s modified Eagle’s medium (DMEM, Invitrogen, Breda, The Netherlands), supplemented with 20 % heat-inactivated fetal calf serum (Lonza, BioWhittaker, Verviers, Belgium), 50 U/ml penicillin with 50 μg/ml streptomycin (Invitrogen), 2 mM L-glutamine (Invitrogen), 0.1 mM β-mercaptoethanol (Sigma-Aldrich) and 1 % (v/v) nonessential amino acids (Invitrogen), at 37 °C and 5 % CO2 in a humidified atmosphere. Cells were kept undifferentiated with 1000 U/ml murine leukemia inhibiting factor (LIF) (Sigma-Aldrich) and subcultured every 2–3 days using nonenzymatic cell dissociation solution (Sigma-Aldrich) to detach the cells.
# Differentiation assays were carried out to detect the effect of test compounds on the differentiation of ES-D3 cells into contracting cardiomyocytes using culture medium in the absence of LIF. On day 1, droplets of 20 μl cell suspension (3.75 × 10^4 cells/ml) were placed as hanging drops, to which the test compounds 0594, 0595, 0596, 0599, 0600 and 0618 were added at concentrations ranging from 0.2 to 60 μM (final solvent concentration 0.2 % DMSO), on the inner side of the lid of a 96-well plate. Sterile lids of Eppendorf tubes were placed on the corner wells of the plates to prevent contact of the drops with the plate. The wells of the 96-well plate were filled with 250 μl phosphate buffered saline (PBS) (Invitrogen), and the plate was sealed with Micropore tape (3M, Neuss, Germany) to prevent evaporation of the hanging drops. Plates were incubated for 3 days at 37 °C and 5 % CO2 in a humidified atmosphere. In the drops, cells formed embryonic bodies (EBs), which were transferred to nontissue culture-treated Petri dishes (diameter 6 cm, Greiner) with 5 ml of medium with test compound. On day 5, the EBs were transferred to a 24-well plate (Corning) with 1 ml of medium with test compound, with one EB per well. On day 10, the number of wells containing contracting EBs was determined by visual inspection using a light microscope. Solvent control (0.2 % DMSO in culture medium) was included in each experiment. The solvent control was also used to assess the quality of the batch of ES-D3 cells used in each individual test (cells being randomly distributed over test groups and solvent control). Tests were accepted for further analysis if at least 21 of the 24 wells of the solvent control contained contracting cardiomyocytes. For each test compound, three independent assays were performed. The results were expressed as “fraction of total,” with 1.0 implying all EBs in one 24-well plate differentiated into contracting cardiomyocytes.
# Different dichotomous concentration–response models were fitted to the in vitro developmental toxicity data obtained from the ES-D3 cell differentiation assay to calculate benchmark concentrations (BMC) using Environmental Protection Agency benchmark dose (BMD) software version 2.4. For each test compound, the BMCd50, representing the concentration for a 50 % reduction in the number of differentiated EBs, was derived. Models included in the evaluation were the gamma, logistic, loglogistic, probit, logprobit, multistage, weibull and the quantal-linear model. […] The lowest BMCd50 value was chosen from the accepted models.
# To combine in vitro developmental toxicity data obtained from the ES-D3 cell differentiation assay with placental transfer data obtained from the BeWo transport model, a corrected BMCd50 value was calculated by dividing the BMCd50 values by the relative Papp values, as described in Li et al. ([2015]).
# time-mated Wistar rats = assay: in vivo maternal and prenatal developmental toxicity screening study (OECD 414 principles); settings: rat
# Excerpt: The major differences to a full guideline study were the smaller sample size, using 9–10 instead of at least 16 pregnant rats, per test substance.
# The animals were paired by the breeder [time-mated Wistar rats, Crl: WI (Han), Charles River Laboratories, Sulzfeld, Germany], between 10 and 12 weeks of age, and supplied on the day of evidence of mating; this day is referred to as gestational day (GD) 0 and following day as GD 1. […] This strain has been extensively used, both in our laboratory and elsewhere, and is sensitive to reproductive toxicants. All rats were housed individually in Makrolon cages with Lignocel PS 14 fibers dust-free bedding and wooden enrichment blocks. The cages were kept in climate-controlled rooms at 20–24 °C with a relative humidity of 30–70 %, an air exchange rate of 15 times per hour and a 12-h light/dark cycle. Diet (Ground Kliba SA, Switzerland) and tap water were provided ad libitum. In-life data (mortality, clinical signs, body weights and food consumption) were recorded throughout the study, but presented only if relevant for the interpretation of prenatal developmental effects.
# The test compounds administered by gavage were administrated between 100 and 600 mg/kg bw/day using the vehicle 1 % carboxymethylcellulose in deionized water. The standard dose volume was 10 ml/kg bw.
# On GD 20, the surviving dams were anesthetized with isoflurane, killed by decapitation and examined macroscopically. For each dam, the uterus was opened and the number, distribution and classification of implantation sites (live fetus, early and late fetal resorptions, and dead fetus) were determined. The fetuses were removed, sexed and fetal body weight determined. Gross pathological examination of the fetuses, including assessment of abnormalities of the fetal membranes, placentas, amniotic fluid and umbilical cord, was performed. Subsequently, all fetuses were killed by injection of pentobarbital. […] The other half of the fetuses of each dam was fixed in Harrison’s fluid. […] A permanent structural change that is likely to affect adversely the survival or health was assessed as malformation. A change that also occurs in the fetuses of control animals and/or is unlikely to affect adversely the survival or health was assessed as variation. This includes delays in growth or morphogenesis that have otherwise followed a normal pattern of development.
# Maternal toxicity was classified as slight if body weight and/or carcass weight reduction is not above 10 %, moderate if body weight and/or carcass weight reduction is between 10 and 20 % and severe if body weight and/or carcass weight reduction is above 20 %. All the in vivo data are expressed as the affected fetuses/litter.
# [1] = gavage GD 6–19, 100 mg/kg, affected fetuses/litter
# [2] = gavage GD 6–19, 600 mg/kg, affected fetuses/litter
structure (smiles),measurement,setting,value
"CC(c1nc(-c2ccc(C#N)cc2)cs1)C(O)(Cn1ccnc1)c1ccc(F)cc1 (centres unmarked) [compound 0599, 4-[2-[2-(4-Fluorophenyl)-2-hydroxy-3-imidazol-1-yl-1-methyl-propyl]thiazol-4-yl]benzonitrile]",Corrected BMCd50,ES-D3 cells,3.8 µM
same,IC50,ES-D3 cells,1.8 µM
same,Early resorption (%),"time-mated Wistar rats; gavage GD 6–19, 100 mg/kg",7.8%
same,Fetal weight (%),"time-mated Wistar rats; gavage GD 6–19, 100 mg/kg",102%
same,Late resorption (%),"time-mated Wistar rats; gavage GD 6–19, 100 mg/kg",0.8%
same,Maternal carcass weight (CW),"time-mated Wistar rats; gavage GD 6–19, 100 mg/kg",91%
same,Placenta weight (%),"time-mated Wistar rats; gavage GD 6–19, 100 mg/kg",116%
same,Postimplantation loss (%),"time-mated Wistar rats; gavage GD 6–19, 100 mg/kg",8.6%
same,Total number of fetuses,"time-mated Wistar rats; gavage GD 6–19, 100 mg/kg",99
same,Maternal body weight change BWC (6–8),"time-mated Wistar rats; gavage GD 6–19, 100 mg/kg, GD 6–8",66%
same,Maternal food consumption FC (6–20),"time-mated Wistar rats; gavage GD 6–19, 100 mg/kg, GD 6–20",> 74%
same,"Malformation, CP (cleft palate)",time-mated Wistar rats; [1],10%
same,"Malformation, Total (skeletal)",time-mated Wistar rats; [1],100%
same,Misshapen basisphenoid,time-mated Wistar rats; [1],74.2%
same,Misshapen temporal bone,time-mated Wistar rats; [1],85.4%
same,Small tuberositas deltoidea,time-mated Wistar rats; [1],66.3%
same,Maternal mortality,"time-mated Wistar rats; gavage GD 6–19, 250 mg/kg",Mortality 100 %**
same,Total number of fetuses,"time-mated Wistar rats; gavage GD 6–19, 250 mg/kg",0
same,Ranking (in vivo prenatal developmental toxicity potency),"time-mated Wistar rats; 1 = highest potential, 6 = lowest, among the six test compounds",1
"CC1CC(C)OC(Cn2cncn2)(c2ccc(Oc3ccc(Cl)cc3)cc2Cl)O1 (centres unmarked) [compound 0600, 1-[[2-[2-Chloro-4-(4-chlorophenoxy)phenyl]-4,6-dimethyl-1,3-dioxan-2-yl]methyl]-1,2,4-triazole]",Corrected BMCd50,ES-D3 cells,21.0 µM
same,IC50,ES-D3 cells,4.2 µM
same,Ranking (in vivo prenatal developmental toxicity potency),"time-mated Wistar rats; female, Wistar Crl:WI(Han), in vivo",3
same,Early resorption (%),"time-mated Wistar rats; gavage GD 6–19, 200 mg/kg",4.0%
same,Fetal weight (%),"time-mated Wistar rats; gavage GD 6–19, 200 mg/kg",102%
same,Late resorption (%),"time-mated Wistar rats; gavage GD 6–19, 200 mg/kg",0.0%
same,Maternal toxicity classification,"time-mated Wistar rats; gavage GD 6–19, 200 mg/kg",No
same,Maternal toxicity findings,"time-mated Wistar rats; gavage GD 6–19, 200 mg/kg",NAD
same,Placenta weight (%),"time-mated Wistar rats; gavage GD 6–19, 200 mg/kg",105%
same,Postimplantation loss (%),"time-mated Wistar rats; gavage GD 6–19, 200 mg/kg",4.0%
same,Total number of fetuses,"time-mated Wistar rats; gavage GD 6–19, 200 mg/kg",99
same,"Malformation, Total (skeletal)","time-mated Wistar rats; gavage GD 6–19, 200 mg/kg, affected fetuses/litter",Total 0%
same,Early resorption (%),"time-mated Wistar rats; gavage GD 6–19, 600 mg/kg",6.0%
same,Fetal weight (%),"time-mated Wistar rats; gavage GD 6–19, 600 mg/kg",102%
same,Late resorption (%),"time-mated Wistar rats; gavage GD 6–19, 600 mg/kg",1.0%
same,Placenta weight (%),"time-mated Wistar rats; gavage GD 6–19, 600 mg/kg",130%
same,Postimplantation loss (%),"time-mated Wistar rats; gavage GD 6–19, 600 mg/kg",7.0%
same,Total number of fetuses,"time-mated Wistar rats; gavage GD 6–19, 600 mg/kg",104
same,"Malformation, CP (cleft palate)",time-mated Wistar rats; [2],5%
same,"Malformation, Total (skeletal)",time-mated Wistar rats; [2],81%
same,Misshapen pterygoid bones,time-mated Wistar rats; [2],36.3%
same,Small tuberositas deltoidea,time-mated Wistar rats; [2],48.1%
